Results published in patent US20050112573A1, “Method of detecting toxic substance” (priority 2001, published 2005).

Test system: yeast genes (level of expressed mRNA)
Assay: DNA chip analysis of expressed mRNA of yeast genes after 2 h culture with a toxic chemical substance
Format: cell-based, Saccharomyces cerevisiae S288C
Conditions: for The level of expressed mRNA in the presence of chemical substance/ (ratio to absence of chemical substance): stress protein genes, DNA chip; for The level of expressed mRNA in the presence of chemical substance/ in its absence, gene YPR184W: yeast gene YPR184W
Procedure: Yeast (Saccharomyces cerevtisiae S288C (α SUC2mal mel gap2 CUP1)) were cultured at 25° C. on YPD medium (yeast extract 1%, polypepton 2%, glucose 2%). One of toxic chemical substances was added to the cell at logarithmic growth phase, and the cell was further cultured for two hours. Cell was cultured without any chemical substance in the same condition, and was used as control. Concentrations of the chemical substances were defined to inhibit the growth of the yeast but not lead to death.
After the completion of cultivation, the culture was centrifuged to collect the cells. To the cells, sodium acetate buffer (50 mM sodium acetate, 10 mM EDTA, 1% SDS) was added, and the mixture was shaken at 65° C. for five minutes, followed by returning to room temperature, and obtaining the supernatant, which procedure was repeated two times. To the supernatant, ½ amount of a solution of phenol/chloroform was added, and the mixture was centrifuged to give a supernatant, which was added with an equal amount of chloroform, and the mixture was centrifuged to give a supernatant. To the supernatant, an equal amount of isopropanol containing 0.3 M sodium acetate was added, and the mixture was allowed to stand at room temperature for 30 minutes, after which the mixture was centrifuged to give a sediment of the whole RNAs. Seventy % ethanol was added to the sediment, and the mixture was again centrifuged to give a sediment, which was then dried and dissolved in water. mRNA was isolated from the whole RNAs as followings. In view of the fact that a poly A chain is attached to the 3′ terminus of mRNA, a polynucleotide having a poly T structure which was immobilized on the surface of latex beads was used to trap the mRNA, and then the mRNA was washed and eluted with spine column (Oligotex-dT30<Super>mRNA Purification Kit, Takara). Reverse transcription of the mRNA was conducted with a reverse transcriptase (Super Script II Reverse Transcriptase; catalogue No. 18064-014, GibcoBRL) using fluorescence-labeled nucleotides to give cDNAs that were introduced with Cy3-dUTP or Cy5-dUTP during the reverse transcription.
The labeled cDNAs were dissolved in TE buffer (10 mM Tris-HCl/1 mM EDTA, pH8.0), and the solution was dropped on the DNA chip containing the whole genes of yeast (DNA Chip Research Inc. Japan) so that the cDNAs were hybridized on the DNA chip at 65° C. for over 12 hours. The fluoresces intensity of the DNA chip was read with a scanner, and the ratio relative to the fluorescence intensity resulting from the absence of chemical substance was estimated as the following, which is shown in Tables 1 to 9: [formula]
In the Tables, “Intensity” indicated in the rightmost column is a value of the level of expressed mRNA of each gene in control cells as divided by the average level of the expressions of the whole genes.

C[S+](C)[O-] [(15), dimethylsulfoxide]
The level of expressed mRNA in the presence of chemical substance/The level of expressed mRNA in the absence of chemical substance (yeast gene YMR314W): 1.2
The level of expressed mRNA in the presence of chemical substance/The level of expressed mRNA in the absence of chemical substance (yeast gene YNL006W): 0.7
The level of expressed mRNA in the presence of chemical substance/The level of expressed mRNA in the absence of chemical substance (yeast gene YNL007C): 0.8
The level of expressed mRNA in the presence of chemical substance/ (in its absence), gene YNL025C (yeast gene YNL025C, ratio of DNA chip fluorescence intensity to that without chemical substance): 1.4
The level of expressed mRNA in the presence of chemical substance/ (ratio to absence of chemical substance) (yeast gene YNL064C): 0.7
The level of expressed mRNA in the presence of chemical substance/ (ratio to absence), gene YNL073W (yeast gene YNL073W, mitochondria-located protein genes, 2 h culture with chemical): 0.7
The level of expressed mRNA in the presence of chemical substance/The level of expressed mRNA in the absence of chemical substance (yeast gene YNL093W): 0.6
The level of expressed mRNA in the presence of chemical substance/ (in its absence), gene YNL192W (yeast gene YNL192W, ratio of DNA chip fluorescence intensity to that without chemical substance): 2.1
The level of expressed mRNA in the presence of chemical substance/The level of expressed mRNA in the absence of chemical substance (yeast gene YNL333W): 1.0
The level of expressed mRNA in the presence of chemical substance/The level of expressed mRNA in the absence of chemical substance (yeast gene YNR010W): 0.8
The level of expressed mRNA in the presence of chemical substance/The level of expressed mRNA in the absence of chemical substance (yeast gene YNR069C): 1.0
The level of expressed mRNA in the presence of chemical substance/ (in its absence), gene YNR072W (yeast gene YNR072W, ratio of DNA chip fluorescence intensity to that without chemical substance): 1.8
The level of expressed mRNA in the presence of chemical substance/ (ratio to absence of chemical substance) (yeast gene YNR076W): 1.1
The level of expressed mRNA in the presence of chemical substance/The level of expressed mRNA in the absence of chemical substance (yeast gene YOL013C): 2.7
The level of expressed mRNA in the presence of chemical substance/ (ratio to absence), gene YOL096C (yeast gene YOL096C, mitochondria-located protein genes, 2 h culture with chemical): 1.0
The level of expressed mRNA in the presence of chemical substance/ (in its absence), gene YOL096C (yeast gene YOL096C, ratio of DNA chip fluorescence intensity to that without chemical substance): 1.0
The level of expressed mRNA in the presence of chemical substance/ (in its absence), gene YOL108C (yeast gene YOL108C, ratio of DNA chip fluorescence intensity to that without chemical substance): 1.5
The level of expressed mRNA in the presence of chemical substance/ (in its absence), gene YOL116W (yeast gene YOL116W, ratio of DNA chip fluorescence intensity to that without chemical substance): 0.7
The level of expressed mRNA in the presence of chemical substance/ (ratio to absence of chemical substance) (yeast gene YOL161C): 1.1
The level of expressed mRNA in the presence of chemical substance/The level of expressed mRNA in the absence of chemical substance (yeast gene YOL164W): 1.0
The level of expressed mRNA in the presence of chemical substance/ (ratio to absence of chemical substance) (yeast gene YOR008C): 0.9
The level of expressed mRNA in the presence of chemical substance/ (ratio to absence of chemical substance) (yeast gene YOR009W): 0.6
The level of expressed mRNA in the presence of chemical substance/ (ratio to absence of chemical substance) (yeast gene YOR010C): 0.6
The level of expressed mRNA in the presence of chemical substance/The level of expressed mRNA in the absence of chemical substance (yeast gene YOR036W): 1.2
The level of expressed mRNA in the presence of chemical substance/ (in its absence), gene YOR103C (yeast gene YOR103C, ratio of DNA chip fluorescence intensity to that without chemical substance): 1.4
The level of expressed mRNA in the presence of chemical substance/The level of expressed mRNA in the absence of chemical substance (yeast gene YOR117W): 1.4
The level of expressed mRNA in the presence of chemical substance/The level of expressed mRNA in the absence of chemical substance (yeast gene YOR124C): 1.3
The level of expressed mRNA in the presence of chemical substance/The level of expressed mRNA in the absence of chemical substance (yeast gene YOR132W): 1.5
The level of expressed mRNA in the presence of chemical substance/The level of expressed mRNA in the absence of chemical substance (yeast gene YOR157C): 1.9
The level of expressed mRNA in the presence of chemical substance/ (in its absence), gene YOR180C (yeast gene YOR180C, ratio of DNA chip fluorescence intensity to that without chemical substance): 1.1
The level of expressed mRNA in the presence of chemical substance/The level of expressed mRNA in the absence of chemical substance (yeast gene YOR181W): 3.4
The level of expressed mRNA in the presence of chemical substance/The level of expressed mRNA in the absence of chemical substance (yeast gene YOR185C): 1.0
The level of expressed mRNA in the presence of chemical substance/ (in its absence), gene YOR251C (yeast gene YOR251C, ratio of DNA chip fluorescence intensity to that without chemical substance): 0.6
The level of expressed mRNA in the presence of chemical substance/The level of expressed mRNA in the absence of chemical substance (yeast gene YOR259C): 1.3
The level of expressed mRNA in the presence of chemical substance/The level of expressed mRNA in the absence of chemical substance (yeast gene YOR261C): 1.3
The level of expressed mRNA in the presence of chemical substance/The level of expressed mRNA in the absence of chemical substance (yeast gene YOR288C): 1.8
The level of expressed mRNA in the presence of chemical substance/ (ratio to absence), gene YOR316C (yeast gene YOR316C, mitochondria-located protein genes, 2 h culture with chemical): 1.5
The level of expressed mRNA in the presence of chemical substance/ (in its absence), gene YOR348C (yeast gene YOR348C, ratio of DNA chip fluorescence intensity to that without chemical substance): 1.6
The level of expressed mRNA in the presence of chemical substance/The level of expressed mRNA in the absence of chemical substance (yeast gene YOR355W): 3.2
The level of expressed mRNA in the presence of chemical substance/ (in its absence), gene YOR363C (yeast gene YOR363C, ratio of DNA chip fluorescence intensity to that without chemical substance): 1.1
The level of expressed mRNA in the presence of chemical substance/The level of expressed mRNA in the absence of chemical substance (yeast gene YOR383C): 1.1
The level of expressed mRNA in the presence of chemical substance/ (ratio to absence), gene YPL040C (yeast gene YPL040C, mitochondria-located protein genes, 2 h culture with chemical): 1.1
The level of expressed mRNA in the presence of chemical substance/ (ratio to absence of chemical substance) (yeast gene YPL059W): 1.0
The level of expressed mRNA in the presence of chemical substance/The level of expressed mRNA in the absence of chemical substance (yeast gene YPL089C): 2.6
The level of expressed mRNA in the presence of chemical substance/The level of expressed mRNA in the absence of chemical substance (yeast gene YPL109C): 1.3
The level of expressed mRNA in the presence of chemical substance/ (ratio to absence), gene YPL134C (yeast gene YPL134C, mitochondria-located protein genes, 2 h culture with chemical): 1.1
The level of expressed mRNA in the presence of chemical substance/ (ratio to absence of chemical substance) (yeast gene YPL140C): 0.7
The level of expressed mRNA in the presence of chemical substance/ (in its absence), gene YPL148C (yeast gene YPL148C, ratio of DNA chip fluorescence intensity to that without chemical substance): 0.6
The level of expressed mRNA in the presence of chemical substance/The level of expressed mRNA in the absence of chemical substance (yeast gene YPL149W): 0.8
The level of expressed mRNA in the presence of chemical substance/The level of expressed mRNA in the absence of chemical substance (yeast gene YPL154C): 4.0
The level of expressed mRNA in the presence of chemical substance/ (ratio to absence of chemical substance) (yeast gene YPL194W): 1.4
The level of expressed mRNA in the presence of chemical substance/ (ratio to absence of chemical substance) (yeast gene YPR005C): 2.7
The level of expressed mRNA in the presence of chemical substance/The level of expressed mRNA in the absence of chemical substance (yeast gene YPR103W): 1.0
The level of expressed mRNA in the presence of chemical substance/The level of expressed mRNA in the absence of chemical substance (yeast gene YPR108W): 1.3
The level of expressed mRNA in the presence of chemical substance/ (in its absence), gene YPR165W (yeast gene YPR165W, ratio of DNA chip fluorescence intensity to that without chemical substance): 0.9
The level of expressed mRNA in the presence of chemical substance/ in its absence, gene YPR184W (energy system protein genes, 2 h culture with the chemical, ratio to control without chemical): 1.5
The level of expressed mRNA in the presence of chemical substance/ in its absence, gene YPR184W (ratio of DNA chip fluorescence intensity to that without chemical substance): 1.5
